Assay results as given in patent US10464925B2, “Methods to induce targeted protein degradation through bifunctional molecules” (Dana-Farber Cancer Institute, Inc., priority 2015, dated 2019).
Where two headings read alike, the source gives them in different places.

How the values were obtained:
BRDT = BRDT (Homo sapiens, UniProt Q58F21); assay: BRDT IC50 (Table 4); format: binding; conditions: read-out: IC50 (nM) BRDT
MOLT4 = assay: Cell viability, ATPlite 48 hours, MOLT4; format: cell-based; conditions: Homo sapiens, MOLT-4; MOLT4 cells
Method: ATP content was measured as a surrogate for cellular viability using ATPlite (Promega).

Calu6 = assay: Cell viability, ATPlite 72 hours; format: cell-based; conditions: Homo sapiens, Calu-6
Method: Various cell lines were seeded into 384-well tissue culture-treated plates at a density of 2,000 cells per well in a volume of 50 μL/well. […] After 72 hours of incubation, cells were analyzed for cell viability using the ATPlite (PerkinElmer) Luminescence Assay Kit per the manufacturer's instructions, using ATP content as a surrogate for viable cell number. Luminescence was read on an EnVision 2104 Multilabel Plate Reader (PerkinElmer).

NGP = assay: Cell viability, ATPlite 72 hours; format: cell-based; conditions: NGP; for IC50: read-out: IC50 (nM) NGP
CCF-STTG1 = assay: Cell viability, ATPlite 72 hours; format: cell-based; conditions: Homo sapiens
PANC032 = assay: cells; conditions: 72 h
KP2 = assay: cells; conditions: 72 h
ASPC1 = assay: cells; conditions: Homo sapiens, ASPC1, 72 h
A549 = assay: cells; conditions: Homo sapiens, A549, 72 h
NMC-G1 = assay: cells; conditions: 72 h
HCT116 = assay: cells; conditions: Homo sapiens, HCT-116, 72 h
MC116 = assay: cells; conditions: Homo sapiens, MC116, 72 h
NCI-H460 = assay: cells; conditions: Homo sapiens, NCI-H460, 72 h
NCI-H838 = assay: cells; conditions: Homo sapiens, NCI-H838, 72 h
ZR-75-1_YMB-1 = assay: cells; conditions: 72 h
LCLC-103H = assay: cells; conditions: Homo sapiens, 72 h
SW1783 = assay: cells; conditions: Homo sapiens, SW1783, 72 h
MKN45 = assay: cells; conditions: Homo sapiens, MKN-45, 72 h
Cl-1 = assay: cells; conditions: 72 h
HCC1315 = assay: cells; conditions: 72 h
KARPAS = assay: cells; conditions: 72 h
KP-N-YN = assay: cells; conditions: 72 h
MDA-MB-231 = assay: cells; conditions: Homo sapiens, MDA-MB-231, 72 h
MDA-MB-436 = assay: cells; conditions: Homo sapiens, MDA-MB-436, 72 h
SBC-5 = assay: cells; conditions: Homo sapiens, SBC-5, 72 h
SKMEL28 = assay: cells; conditions: Homo sapiens, SK-MEL-28, 72 h
SUM149 = assay: cells; conditions: SUM149, 72 h
SUM159 = assay: cells; conditions: SUM159, 72 h
SUM159R = assay: cells; conditions: 72 h
SUM185 = assay: cells; conditions: 72 h

**Q.** Cc1sc2c(c1C)C(c1ccc(Cl)cc1)=N[C@@H](CC(=O)NCCCCCCCCNC(=O)COc1cccc3c1C(=O)N(C1CCC(=O)NC1=O)C3=O)c1nnc(C)n1-2 (stereo partly shown) [dBET6] was tested. Which IC50 (BRDT) did it give?
**A.** 56 nM

**Q.** And the IC50 (MOLT4)?
**A.** 65.3 nM

**Q.** And the Emax (Calu6)?
**A.** 51.7%

**Q.** What about the IC50 (Calu6) of the same molecule?
**A.** 233 nM

**Q.** And the Emax (NGP; 72 h, read-out: Emax (%) NGP)?
**A.** 21.9%

**Q.** And the IC50 (NGP; 72 h)?
**A.** 188 nM

**Q.** And the IC50 (NGP)?
**A.** 188 nM

**Q.** And the Emax (CCF-STTG1)?
**A.** 45.8%

**Q.** What about the Emax (PANC032; read-out: Emax (%) PANC032) of the same molecule?
**A.** 53.2%

**Q.** And the IC50 (PANC032; read-out: IC50 (nM) PANC032)?
**A.** 1450 nM

**Q.** And the Emax (KP2; read-out: Emax (%) KP2)?
**A.** 20.7%

**Q.** And the IC50 (KP2; read-out: IC50 (nM) KP2)?
**A.** 513 nM

**Q.** And the Emax (ASPC1; read-out: Emax (%) ASPC1)?
**A.** 50.4%

**Q.** What about the IC50 (ASPC1; read-out: IC50 (nM) ASPC1) of the same molecule?
**A.** 1460 nM

**Q.** And the Emax (A549; read-out: Emax (%) A549)?
**A.** 30.9%

**Q.** And the IC50 (A549; read-out: IC50 (nM) A549)?
**A.** 1900 nM

**Q.** And the Emax (NMC-G1; read-out: Emax (%) NMC-G1)?
**A.** 36.6%

**Q.** And the IC50 (NMC-G1; read-out: IC50 (nM) NMC-G1)?
**A.** 70 nM

**Q.** And the Emax (HCT116; read-out: Emax (%) HCT116)?
**A.** 26.9%

**Q.** And the IC50 (HCT116; read-out: IC50 (nM) HCT116)?
**A.** 154 nM

**Q.** What about the Emax (MC116; read-out: Emax (%) MC116) of the same molecule?
**A.** 0.32%

**Q.** And the IC50 (MC116; read-out: IC50 (nM) MC116)?
**A.** 20.5 nM

**Q.** What about the Emax (NCI-H460; read-out: Emax (%) NCI-H460) of the same molecule?
**A.** 34.4%

**Q.** And the IC50 (NCI-H460; read-out: IC50 (nM) NCI-H460)?
**A.** 438 nM

**Q.** What about the Emax (NCI-H838; read-out: Emax (%) NCI-H838) of the same molecule?
**A.** 32.2%

**Q.** And the IC50 (NCI-H838; read-out: IC50 (nM) NCI-H838)?
**A.** 52 nM

**Q.** And the Emax (ZR-75-1_YMB-1; read-out: Emax (%) ZR-75-1_YMB-1)?
**A.** 21.6%

**Q.** And the IC50 (ZR-75-1_YMB-1; read-out: IC50 (nM) ZR-75-1_YMB-1)?
**A.** 23.5 nM

**Q.** What about the Emax (LCLC-103H; read-out: Emax (%) LCLC-103H) of the same molecule?
**A.** 24%

**Q.** What about the IC50 (LCLC-103H; read-out: IC50 (nM) LCLC-103H) of the same molecule?
**A.** 84.2 nM

**Q.** What about the Emax (SW1783; read-out: Emax (%) SW1783) of the same molecule?
**A.** 22.2%

**Q.** What about the IC50 (SW1783; read-out: IC50 (nM) SW1783) of the same molecule?
**A.** 38.2 nM

**Q.** What about the Emax (MKN45; read-out: Emax (%) MKN45) of the same molecule?
**A.** 19.4%

**Q.** What about the IC50 (MKN45; read-out: IC50 (nM) MKN45) of the same molecule?
**A.** 41.1 nM

**Q.** And the Emax (Cl-1; read-out: Emax (%) Cl-1)?
**A.** 10.7%

**Q.** And the IC50 (Cl-1; read-out: IC50 (nM) Cl-1)?
**A.** 23.3 nM

**Q.** What about the Emax (HCC1315; read-out: Emax (%) HCC1315) of the same molecule?
**A.** 41.2%

**Q.** What about the IC50 (HCC1315; read-out: IC50 (nM) HCC1315) of the same molecule?
**A.** 1060 nM

**Q.** And the Emax (KARPAS; read-out: Emax (%) KARPAS)?
**A.** 21%

**Q.** What about the IC50 (KARPAS; read-out: IC50 (nM) KARPAS) of the same molecule?
**A.** 2.18 nM

**Q.** What about the Emax (KP-N-YN; read-out: Emax (%) KP-N-YN) of the same molecule?
**A.** 42.8%

**Q.** And the IC50 (KP-N-YN; read-out: IC50 (nM) KP-N-YN)?
**A.** 9.41 nM

**Q.** What about the Emax (MDA-MB-231; read-out: Emax (%) MDA-MB-231) of the same molecule?
**A.** 24.2%

**Q.** What about the IC50 (MDA-MB-231; read-out: IC50 (nM) MDA-MB-231) of the same molecule?
**A.** 146 nM

**Q.** And the Emax (MDA-MB-436; read-out: Emax (%) MDA-MB-436)?
**A.** 29.5%

**Q.** And the IC50 (MDA-MB-436; read-out: IC50 (nM) MDA-MB-436)?
**A.** 39.6 nM

**Q.** And the Emax (SBC-5; read-out: Emax (%) SBC-5)?
**A.** 21.6%

**Q.** And the IC50 (SBC-5; read-out: IC50 (nM) SBC-5)?
**A.** 841 nM

**Q.** What about the Emax (SKMEL28; read-out: Emax (%) SKMEL28) of the same molecule?
**A.** 59%

**Q.** And the IC50 (SKMEL28; read-out: IC50 (nM) SKMEL28)?
**A.** 474 nM

**Q.** What about the Emax (SUM149; read-out: Emax (%) SUM149) of the same molecule?
**A.** 27.9%

**Q.** And the IC50 (SUM149; read-out: IC50 (nM) SUM149)?
**A.** 131 nM

**Q.** And the Emax (SUM159; read-out: Emax (%) SUM159)?
**A.** 12%

**Q.** And the IC50 (SUM159; read-out: IC50 (nM) SUM159)?
**A.** 32.5 nM

**Q.** And the Emax (SUM159R; read-out: Emax (%) SUM159R)?
**A.** 36%

**Q.** And the IC50 (SUM159R; read-out: IC50 (nM) SUM159R)?
**A.** 92.4 nM

**Q.** And the Emax (SUM185; read-out: Emax (%) SUM185)?
**A.** 22.9%

**Q.** What about the IC50 (SUM185; read-out: IC50 (nM) SUM185) of the same molecule?
**A.** 1.44 nM
